We go through 9 compounds from patent US10829648B2, “Succinate dehydrogenase inhibitor containing compositions” (priority 2012, dated 2020).

Common to all, as to assay type: cell-based
Assay [1] has as its system Aureobasidium pullulans (ATCC 9348). Nature of the assay: Microtiter plate MIC test, A. pullulans. The settings on record: for MIC: Aureobasidium pullulans, ATCC9348, 168 h, read-out: MIC alone. How it is done:
(§1) Sample stock solution of Penflufen was prepared in DMSO at 20000 ppm (active ingredient).
(§2) Microorganisms grown on agar slants were harvested using standard microbiological techniques. The numbers of mold spores were determined by counted using a hemocytometer, and then inoculum was prepared in the media shown in Table 2. Then, 190 ul of inoculum was added into each well containing 10 ul of the serially diluted sample solution.

The next assay has as its system Coniophora puteana. Nature of the assay: Agar dilution MIC against decay fungus Coniophora puteana. To be noted: for MIC: Coniophora puteana, 216 h, read-out: Coniophora puteana MIC (ppm). The method, then: (§3) Total 17 samples, including Penflufen, 8 Penflufen-potentiator blends and 8 potentiators were submitted for evaluation.
(§4) Decay fungi Antrodia sinuosa and Coniophora puteana were obtained from GTS microbiology lab fungal collection and cultured on Potato Dextrose Agar at 28° C.
(§5) The samples were diluted to test at a starting concentration of 1,000 ppm active based on the concentration of Penflufen in the samples. Samples were serially diluted into the molten Potato Dextrose Agar before the agar was solidified. The agar plugs with active fungal hyphae growth were inoculated onto the prepared agar surface.
(§6) All concentrations reported are in ppm.

Assay [2] deals with Aspergillus brasiliensis (ATCC 16404). Description: Microtiter plate minimum inhibitory concentration (MIC) test, A. brasiliensis. To be noted: for MIC: Aspergillus brasiliensis, ATCC16404, 168 h, read-out: MIC alone. The method, then:
as §1, §2

The subject of the next assay is P. pinophilum. Nature of the assay: Microtiter plate MIC test, P. pinophilum. The settings on record: for MIC: 168 h, read-out: MIC alone. The method, then: as §1, §2
The test system of assay [3] is Trichoderma virens (ATCC 9645). Description: Microtiter plate MIC test, T. virens. To be noted: for MIC: Trichoderma virens, ATCC9645, 168 h, read-out: MIC alone. The method, then:
as §1, §2

The test system of another assay is Antrodia sinuosa. Description: Agar dilution MIC against decay fungus Antrodia sinuosa. The settings on record: for MIC: Adustoporia sinuosa, 216 h, read-out: Antrodia sinuosa MIC (ppm). How it is done: as §3, §4, §5, §6
The subject of assay [4] is Aspergillus niger (ATCC 9642). Nature of the assay: Microtiter plate MIC test, A. niger. The settings on record: for MIC: Aspergillus niger, ATCC9642, 168 h, read-out: MIC alone. The method, then: as §1, §2
Where [5] appears, read: substance alone, A. pullulans, 28° C., 7 days, ppm.
[6] abbreviates: active or potentiator alone, Potato Dextrose Agar, 28° C., 9 days, complete inhibition of hyphae growth.
[7] abbreviates: substance alone, A. brasiliensis, 28° C., 7 days, ppm.
Setting [8] is: substance alone, P. pinophilum, 28° C., 7 days, ppm.
Where [9] appears, read: substance alone, T. virens, 28° C., 7 days, ppm.
Setting [10] is: substance alone, A. niger, 28° C., 7 days, ppm.

≈ marks a conversion by molar mass, not a printed value. Like-named read-outs stand apart in the source and are kept apart here. Where only a bound is given, the exact number is not on record here.

For cocoamine oxide [Barlox 12], the MIC alone in assay [1] (setting [5]) was found to be 15.62 ppm; in assay [2] (setting [7]), 62.5 ppm; against P. pinophilum (setting [8]), 62.5 ppm; in assay [3] (setting [9]) it was 125 ppm; in assay [4] (setting [10]) it was 15.62 ppm. Further, the “Coniophora puteana MIC (ppm)” value in the assay on Coniophora puteana (setting [6]) was found to be 250 ppm. The “Antrodia sinuosa MIC (ppm)” value in the assay with Antrodia sinuosa (setting [6]) came out at 62.5 ppm.
On to “Tris(2-hydroxyethyl)-N-tallowalkyl-1,3-diaminopropane [Ethoduomeen]”, for which the MIC alone in assay [1] (setting [5]) was 9.76 ppm; in assay [2] (setting [7]) it was under 4.88 ppm; with P. pinophilum (setting [8]), under 4.88 ppm; in assay [3] (setting [9]), under 4.88 ppm; in assay [4] (setting [10]) it was under 4.88 ppm. For the same compound, the “Coniophora puteana MIC (ppm)” value with Coniophora puteana (setting [6]) was 2500 ppm. In addition, the “Antrodia sinuosa MIC (ppm)” value in the assay on Antrodia sinuosa (setting [6]) is 625 ppm.
With `O=C([O-])c1ccccc1.[Na+]` [Sodium benzoate], the “Coniophora puteana MIC (ppm)” value with Coniophora puteana (setting [6]) is 313 ppm. In the assay on Antrodia sinuosa (setting [6]), the “Antrodia sinuosa MIC (ppm)” value is reported as 1250 ppm.
Consider `Cc1ccc(S(N)(=O)=O)cc1`, for which the MIC alone (in assay [1] (setting [5]); in assay [2] (setting [7]); with P. pinophilum (setting [8]); in assay [3] (setting [9]); in assay [4] (setting [10])) was 5000 ppm each time.
With `CCCCCCCC/C=C\CCCCCCCCN` [Oleylamine, (Z)-Octa-9-decenylamine], the MIC alone is recorded as 0.31 ppm in assay [1] (setting [5]); 2.5 ppm in assay [2] (setting [7]); 1.25 ppm against P. pinophilum (setting [8]); 0.625 ppm in assay [3] (setting [9]); 1.25 ppm in assay [4] (setting [10]). Further, the “Coniophora puteana MIC (ppm)” value in the assay on Coniophora puteana (setting [6]) turned out to be 50.0 ppm. The “Antrodia sinuosa MIC (ppm)” value with Antrodia sinuosa (setting [6]) is listed as 50.0 ppm.
In the case of Isononoic Acid, the MIC alone in assay [1] (setting [5]) amounted to 625 ppm; in assay [2] (setting [7]), 1250 ppm; against P. pinophilum (setting [8]), 625 ppm; in assay [3] (setting [9]), 625 ppm; in assay [4] (setting [10]), 625 ppm. Further, in the assay with Coniophora puteana (setting [6]), the “Coniophora puteana MIC (ppm)” value was determined as 156 ppm. For the same compound, the “Antrodia sinuosa MIC (ppm)” value in the assay with Antrodia sinuosa (setting [6]) is 313 ppm.
For the compound `CCCCCCCCCCCCN(C)C` [Barlene 12, N,N-Dimethyl-N-dodecylamine], the MIC in assay [1] is 7.81 µg/mL (≈ 36.6 µM); in the assay on Coniophora puteana it was 500 µg/mL; in assay [2] it was 31.2 µg/mL (≈ 146 µM); in the assay on P. pinophilum, 7.81 µg/mL (≈ 36.6 µM); in assay [3], 7.81 µg/mL (≈ 36.6 µM); in the assay with Antrodia sinuosa, 250 µg/mL. Further, in assay [4], the MIC is 250 µg/mL (≈ 1170 µM).
For the compound `CC(=O)c1c([O-])cc(C)oc1=O.CC(=O)c1c([O-])cc(C)oc1=O.[Zn+2]` [DHA Zn, Dehydroacetic acid zinc salt], the MIC alone in assay [1] (setting [5]) is on record as 1000 ppm; in assay [2] (setting [7]), 500 ppm; in the assay with P. pinophilum (setting [8]) it was over 1000 ppm; in assay [3] (setting [9]), 250 ppm; in assay [4] (setting [10]), 500 ppm. For the same compound, the “Coniophora puteana MIC (ppm)” value in the assay on Coniophora puteana (setting [6]) is listed as 125 ppm. Also, the “Antrodia sinuosa MIC (ppm)” value in the assay with Antrodia sinuosa (setting [6]) stood at 125 ppm.
With `Cc1nn(C)c(F)c1C(=O)Nc1ccccc1C(C)CC(C)C` (centres unmarked) [Penflufen, N-[2-(1,3-dimethylbutyl)phenyl]-5-fluoro-1,3-dimethyl-1H-pyrazole-4-carboxamide, reference compound], the minimal inhibitory concentration (MIC) was 500 µg/mL (≈ 1580 µM) in assay [1] (setting [5]); 125 µg/mL in the assay on Coniophora puteana (setting [6]); 15.7 µg/mL (≈ 49.3 µM) in assay [2] (setting [7]); over 1000 µg/mL with P. pinophilum (setting [8]); over 1000 µg/mL in assay [3] (setting [9]); 62.5 µg/mL in the assay with Antrodia sinuosa (setting [6]). The MIC in assay [4] (setting [10]) was found to be 7.81 µg/mL (≈ 24.6 µM).
